According to article PMC9942557, “Bolaamphiphile Analogues of 12-bis-THA Cl2 Are Potent Antimicrobial Therapeutics with Distinct Mechanisms of Action against Bacterial, Mycobacterial, and Fungal Pathogens” (mSphere, 2022):

Experiments:
[1] = tested on: C. tropicalis 8760; assay: Broth microdilution MIC; assay type: cell-based; settings: C. tropicalis 8760
[2] = tested on: M. tuberculosis Bleupan; assay: microbe, parasite or virus in culture; assay type: cell-based, Mycobacterium tuberculosis
[3] = tested on: Acinetobacter baumannii AYE; assay: Broth microdilution MIC; assay type: cell-based; settings: Acinetobacter baumannii AYE
[4] = tested on: C. albicans 3179; assay: Broth microdilution MIC; assay type: cell-based, Candida albicans; settings: C. albicans 3179
[5] = tested on: M. tuberculosis Bleupan; assay type: in vivo, Galleria mellonella
[6] = tested on: VS Enterococcus faecalis NCTC 775; assay: Broth microdilution MIC; assay type: cell-based
[7] = tested on: Acinetobacter baumannii ATCC 17978; assay: Broth microdilution MIC; assay type: cell-based
[8] = tested on: Pseudomonas aeruginosa NCTC 13437; assay: Broth microdilution MIC; assay type: cell-based
[9] = tested on: Klebsiella pneumoniae NCTC 13368; assay: Broth microdilution MIC; assay type: cell-based
[10] = tested on: Klebsiella pneumoniae M6; assay: Broth microdilution MIC; assay type: cell-based
[11] = tested on: HEK293; assay: In vitro toxicity for cell line; assay type: cell-based, human; settings: HEK293; average ± standard error from 3 independent repeats
From the text: (§1) TABLE 2 Toxicity of bolaamphiphiles for two cell lines^a | column: Toxicity (EC50 [μg/ml]) of: / 12-bis-THA Cl2; Toxicity (EC50 [μg/ml]) of: / Dequalinium; Toxicity (EC50 [μg/ml]) of: / Quino-bola; Toxicity (EC50 [μg/ml]) of: / Penta-bola; Toxicity (EC50 [μg/ml]) of: / Hepta-bola; Toxicity (EC50 [μg/ml]) of: / Octa-bola; Toxicity (EC50 [μg/ml]) of: / Octa-C10; Toxicity (EC50 [μg/ml]) of: / Octa-C8; Toxicity (EC50 [μg/ml]) of: / Octa-C6

[12] = tested on: HeLa; assay: In vitro toxicity for cell line; assay type: cell-based, human; settings: average ± standard error from 3 independent repeats
From the text: as §1

[13] = tested on: EMR Staphylococcus aureus 15 NCTC 13616; assay: Broth microdilution MIC; assay type: cell-based; settings: EMR Staphylococcus aureus 15 NCTC 13616
[14] = tested on: C. parapsilosis 3209; assay: Broth microdilution MIC; assay type: cell-based
[15] = tested on: C. albicans 3281; assay: Broth microdilution MIC; assay type: cell-based, Candida albicans; settings: C. albicans 3281
[16] = tested on: M. smegmatis mc^2 155; assay: Broth microdilution MIC (Middlebrook 7H9); assay type: cell-based, Mycobacterium smegmatis
[17] = tested on: C. krusei 3876; assay: Broth microdilution MIC; assay type: cell-based
[18] = tested on: C. auris temp probe; assay: Broth microdilution MIC; assay type: cell-based, Candida auris; settings: C. auris temp probe
[19] = tested on: VR Enterococcus faecalis NCTC 12201; assay: Broth microdilution MIC; assay type: cell-based; settings: VR Enterococcus faecalis NCTC 12201
[20] = tested on: EMR Staphylococcus aureus 16 NCTC 13277; assay: Broth microdilution MIC; assay type: cell-based; settings: EMR Staphylococcus aureus 16 NCTC 13277
[21] = tested on: C. glabrata 8018; assay: Broth microdilution MIC; assay type: cell-based; settings: C. glabrata 8018
[22] = tested on: P. aeruginosa RP73; assay: Checkerboard synergy assay; assay type: cell-based, Pseudomonas aeruginosa
[23] = Dynamic light scattering; assay type: physicochemical
Method: Stock solutions of bolalipids were prepared by dispersing the powder in ultrapure water, then stirring vigorously by vortexing, and sonicating in a 40°C bath sonicator for 20 min. The concentration of each stock solution corresponds to the highest solubility achieved in water for each bolalipid, using the method described above. DLS experiments were performed on a Malvern Zetasizer Nano (Malvern Instruments, Worcestershire, UK) in back-scattering mode at 20°C. There were three independent measurements of each sample and 12 runs for each measurement, with 10 s taken for each run. The attenuator index and measurement position were automatically adjusted. Fifty microliters of each sample was transferred into polystyrene semi-microcuvettes for determination of UV and visible wavelengths (Sarstedt).

[24] = tested on: Pseudomonas aeruginosa PAO1; assay: Broth microdilution MIC; assay type: cell-based
[25] = tested on: Escherichia coli NCTC 12923; assay: Broth microdilution MIC; assay type: cell-based
[26] = tested on: C. parapsilosis; assay: Broth microdilution MIC; assay type: cell-based
[27] = tested on: VR Enterococcus faecium NCTC 12204; assay: Broth microdilution MIC; assay type: cell-based; settings: VR Enterococcus faecium NCTC 12204

SMILES: Nc1c2c([n+](CCCCCC[n+]3c4c(c(N)c5ccccc53)CCCCCC4)c3ccccc13)CCCCCC2 [Octa-C6]
- MIC [1]: 8 µg/mL
- MIC [2]: 0.46 µg/mL
- MIC [3]: >32 µg/mL
- MIC [4]: 8 µg/mL
- protection ([5]; all doses tested): did not provide protection
- survival ([5]; three lower doses (0.01, 0.1, and 1 mg/kg)): survival was significantly worse
- MIC [6]: 32 µg/mL
- MIC [7]: >32 µg/mL
- MIC [8]: >32 µg/mL
- MIC [9]: >32 µg/mL
- MIC [10]: >32 µg/mL
- Toxicity (EC50) [11]: 40.0 ± 15.6 µg/mL
- Toxicity (EC50) [12]: 64.3 ± 3.6 µg/mL
- MIC [13]: 16 µg/mL
- MIC [14]: >8 µg/mL
- MIC [15]: 8 µg/mL
- MIC [16]: 1.66 µg/mL
- MIC [17]: >8 µg/mL
- MIC [18]: >8 µg/mL
- MIC [19]: 16 µg/mL
- MIC [20]: 16 µg/mL
- MIC [21]: >8 µg/mL
- MIC alone Bolalipid [22]: 64 µg/mL
- nanoparticle formation (DLS) ([23]; any conditions): Under no conditions did Octa-C6 give evidence of nanoparticle formation
- derived count rate ([23]; concentrations up to 1.65 mM): ≤ 26.3 kcps
- MIC [24]: >32 µg/mL
- MIC [25]: >32 µg/mL
- MIC [26]: >8 µg/mL
- MIC [27]: 16 µg/mL
